Broadly, the IC50 is the point on the concentration scale where inhibition reaches its midpoint. A higher IC50 goes with lower potency.

We go through one molecule from ChEMBL document CHEMBL1128152, “Active-site conformation of 17-(3-pyridyl)androsta-5,16-dien-3-ol, a potent inhibitor of the P450 enzyme C17-hydroxylase/C17-20 lyase” (Bioorg Med Chem Lett, 1995).

The test concerns the target T1, Steroid 17-alpha-hydroxylase/17,20 lyase (Homo sapiens, UniProt P05093).
T1 sequence (P05093 whole entry): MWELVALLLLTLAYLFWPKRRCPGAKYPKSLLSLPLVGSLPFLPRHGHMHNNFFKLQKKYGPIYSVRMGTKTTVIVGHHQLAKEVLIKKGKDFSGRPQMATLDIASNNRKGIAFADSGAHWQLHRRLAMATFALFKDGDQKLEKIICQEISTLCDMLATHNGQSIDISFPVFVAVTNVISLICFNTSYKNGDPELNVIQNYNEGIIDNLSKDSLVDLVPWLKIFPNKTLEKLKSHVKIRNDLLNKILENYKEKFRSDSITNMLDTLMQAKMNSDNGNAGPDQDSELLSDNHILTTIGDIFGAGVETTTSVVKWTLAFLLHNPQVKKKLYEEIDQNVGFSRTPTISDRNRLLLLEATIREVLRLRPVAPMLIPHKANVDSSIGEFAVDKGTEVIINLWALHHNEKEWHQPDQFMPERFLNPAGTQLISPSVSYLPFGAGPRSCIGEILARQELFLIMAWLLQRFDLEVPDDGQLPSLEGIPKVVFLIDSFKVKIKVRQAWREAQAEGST
Description: Inhibition of human Steroid 17-alpha-hydroxylase/17,20 lyase.

The molecule `C[C@]12CC[C@H](O)CC1=CC[C@@H]1[C@@H]2CC[C@]2(C)C(c3cccnc3)=CC[C@@H]12` [ABIRATERONE] came in with an IC50 of around 1 nM.
